Laboratory results from patent US10752587B2, “Homobispiperidinyl derivatives as liver X receptor beta agonists, compositions and their use” (Merck Sharp & Dohme Corp., priority 2015, dated 2020).
pEC50: −log10 of the molar value. Like-named read-outs stand apart in the source and are kept apart here.

Legend:
[1] = molecular target: T1, glutathione-S-transferase (GST) tagged LXRbeta LBD (ligand binding domain) (Homo sapiens, UniProt P55055); assay: LanthaScreen TR-FRET Liver X Receptor Coactivator Assay, co-activator recruitment to LXRbeta LBD; assay type: biochemical
T1 construct: purchased Invitrogen pv4658.pps
T1 sequence (P55055 222-460 limits assumed): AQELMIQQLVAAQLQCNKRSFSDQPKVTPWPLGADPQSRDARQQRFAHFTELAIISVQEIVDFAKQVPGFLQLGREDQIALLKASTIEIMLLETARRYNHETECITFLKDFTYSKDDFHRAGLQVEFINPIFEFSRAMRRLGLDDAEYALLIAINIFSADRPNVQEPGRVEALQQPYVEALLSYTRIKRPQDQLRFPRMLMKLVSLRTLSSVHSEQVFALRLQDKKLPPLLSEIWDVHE
Procedure: (§1) Potency (Inflection Point, IP) and efficacy (Emax) are evaluated via compound-induced co-activator recruitment to glutathione-S-transferase (GST) tagged LXRbeta and LXRalpha LBD (ligand binding domain) proteins in relation to reference dual agonist compound T0901317 (N-(2,2,2-Trifluoroethyl)-N-[4-[2,2,2-trifluoro-1-hydroxy-1-(trifluoromethyl)ethyl] phenyl] benzenesulfonamide) using the LanthaScreen™ TR-FRET Liver X Receptor Coactivator Assays according to manufacturer's instructions (Invitrogen catalog number pv4658.pps and pv4655). While running the LanthaScreen™ TR-FRET Liver X Receptor Coactivator Assay, LXR alpha-LBD or LXR beta-LBD was added to ligand test compounds followed by addition of a mixture of a fluorescein-labelled coactivator peptide and terbium-conjugated anti-GST antibody. After an incubation period at room temperature, TR-FRET (time-resolved fluorescence resonance energy transfer) was measured using a filter-based instrument capable of TR-FRET, e.g. PerkinElmer Envision.

[2] = molecular target: T2, glutathione-S-transferase (GST) tagged LXRalpha LBD (ligand binding domain) (Homo sapiens, UniProt Q13133); assay: LanthaScreen TR-FRET Liver X Receptor Coactivator Assay, co-activator recruitment to LXRalpha LBD; assay type: biochemical
T2 construct: purchased Invitrogen pv4655
T2 sequence (Q13133 209-447 limits assumed): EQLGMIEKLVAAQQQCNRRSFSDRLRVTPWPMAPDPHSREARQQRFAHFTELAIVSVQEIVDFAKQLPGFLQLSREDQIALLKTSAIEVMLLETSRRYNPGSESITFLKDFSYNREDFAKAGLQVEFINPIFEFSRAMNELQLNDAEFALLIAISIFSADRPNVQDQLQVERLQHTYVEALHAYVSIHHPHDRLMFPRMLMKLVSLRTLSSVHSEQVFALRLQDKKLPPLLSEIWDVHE
Procedure: as §1

[3] = efficacy at max dose, in relation to reference dual agonist T0901317, read-out: LXR beta Activity @ max dose (%)
[4] = potency (Inflection Point, IP), co-activator recruitment to LXRbeta LBD, in relation to T0901317, read-out: LXR beta IP
[5] = efficacy at max dose, in relation to reference dual agonist T0901317, read-out: LXR alpha Activity @ max dose (%)
[6] = potency (Inflection Point, IP), co-activator recruitment to LXRalpha LBD, in relation to T0901317, read-out: LXR alpha IP
[7] = potency (Inflection Point, IP), co-activator recruitment to LXRalpha LBD, in relation to T0901317

| Emax [1, 3] [%] | pEC50 [1, 4] | Emax [2, 5] [%] | pEC50 [2, 6] | LXR alpha IP (nM) [2, 7] | pEC50 ([1]; co-activator recruitment to GST-LXRbeta LBD, TR-FRET, read-out: LXR beta IP (Inflection Point, potency)) | Emax ([1]; efficacy in relation to reference dual agonist T0901317, read-out: LXR beta Activity @ max dose) [%] | pEC50 ([2]; co-activator recruitment to GST-LXRalpha LBD, TR-FRET, read-out: LXR alpha IP (Inflection Point, potency)) | Emax ([2]; efficacy in relation to reference dual agonist T0901317, read-out: LXR alpha Activity @ max dose) [%] | SMILES |
| --- | --- | --- | --- | --- | --- | --- | --- | --- | --- |
| 66 | 8.52 | 22 | 7.22 | – | – | – | – | – | CN(C)C(=O)c1ccc(N2CCC(CC3(C)CCN(C(=O)[C@](O)(c4cccc(Cl)c4)C(F)(F)F)CC3)CC2)nc1Cl [Example 7-47, 2-chloro-6-[4-({1-[(2R)-2-(3-chlorophenyl)-3,3,3-trifluoro-2-hydroxypropanoyl]-4-methylpiperidin-4-yl}methyl)piperidin-1-yl]-N,N-dimethylpyridine-3-carboxamide] |
| 32 | 5.33 | 36 | – | NO IP | – | – | – | – | CN(C)C(=O)c1cnc(N2CCC(CC3CCN(C(=O)[C@](O)(c4ccccc4)C(F)(F)F)CC3)CC2)cc1Cl [Example 7-2, 4-chloro-N,N-dimethyl-6-[4-({1-[(2R)-3,3,3-trifluoro-2-hydroxy-2-phenylpropanoyl]piperidin-4-yl}methyl)piperidin-1-yl] pyridine-3-carboxamide] |
| 145 | 7.57 | 74 | 6.43 | – | – | – | – | – | CNC(=O)c1ccc(N2CCC(CC3CCN(C(=O)[C@](O)(c4ccccc4)C(F)(F)C(F)(F)F)CC3)CC2)nc1Cl [Example 7-131, 2-chloro-N-methyl-6-[4-({1-[(2R)-3,3,4,4,4-pentafluoro-2-hydroxy-2-phenylbutanoyl]piperidin-4-yl}methyl)piperidin-1-yl]pyridine-3-carboxamide] |
| 102 | 6.75 | 25 | 5.49 | – | – | – | – | – | CNC(=O)c1ccc(N2CCC(OC3CCN(C(=O)C(O)(c4cccc(C)c4)C(F)(F)F)CC3)CC2)cc1Cl (centres unmarked) [Example 7-29, 2-chloro-N-methyl-4-[4-({1-[3,3,3-trifluoro-2-hydroxy-2-(3-methylphenyl)propanoyl]piperidin-4-yl}oxy)piperidin-1-yl]benzamide] |
| 81 | 8.15 | 34 | 6.92 | – | – | – | – | – | CNC(=O)c1ccc(N2CCC(CC3CCN(C(=O)[C@](O)(c4cccc(C)c4)C(F)(F)F)CC3)CC2)nc1Cl [Example 7-151, 2-chloro-N-methyl-6-[4-({1-[(2R)-3,3,3-trifluoro-2-hydroxy-2-(3-methylphenyl)propanoyl]piperidin-4-yl}methyl)piperidin-1-yl]pyridine-3-carboxamide] |
| 52 | 8.40 | 15 | – | NO IP | – | – | – | – | Cc1cccc([C@@](O)(C(=O)N2CCC(CC3CCN(c4ccc(C(=O)N(C)C)c(Cl)n4)CC3)CC2)C(F)(F)F)c1 [Example 7-88, 2-chloro-N,N-dimethyl-6-[4-({1-[(2R)-3,3,3-trifluoro-2-hydroxy-2-(3-methylphenyl)propanoyl]piperidin-4-yl}methyl)piperidin-1-yl]pyridine-3-carboxamide] |
| 36 | 5.89 | 0 | – | NO IP | – | – | – | – | CCOc1cccc([C@@](O)(C(=O)N2CCC(CC3CN(c4ccc(C(=O)N(C)C)c(C5CC5)n4)C3)CC2)C(F)(F)F)c1 [Example 7-17, 2-cyclopropyl-6-[3-({1-[(2R)-2-(3-ethoxyphenyl)-3,3,3-trifluoro-2-hydroxypropanoyl]piperidin-4-yl}methyl)azetidin-1-yl]-N,N-dimethylpyridine-3-carboxamide] |
| 69 | 8.15 | 23 | 6.60 | – | – | – | – | – | CN(C)C(=O)c1ccc(N2CCC(CC3CCN(C(=O)[C@](O)(c4cccc(C(F)(F)F)c4)C(F)(F)F)CC3)CC2)nc1Cl [Example 7-87, 2-chloro-N,N-dimethyl-6-{4-[(1-{(2R)-3,3,3-trifluoro-2-hydroxy-2-[3-(trifluoromethyl)phenyl]propanoyl}piperidin-4-yl)methyl]piperidin-1-yl}pyridine-3-carboxamide] |
| – | – | – | – | – | 7.01 | 64 | 6.13 | 23 | COc1cccc(S(=O)(=O)N2CCC(CC3CCN(c4ccc(C(=O)N(C)C)c(Cl)c4)CC3)CC2)c1 [Example 13-11, 2-chloro-4-[4({1-[(3-methoxyphenyl)-sulfonyl]piperidin-4-yl}methyl)piperidin-1-yl]-N,N-dimethyl-benzamide] |
| 54 | 7.14 | 7 | – | NO IP | – | – | – | – | O=C(NCCn1cncn1)c1ccc(N2CCC(CC3CCN(C(=O)[C@](O)(c4cc(Cl)cc(Cl)c4)C(F)(F)F)CC3)CC2)cc1Cl [Example 7-130, 2-chloro-4-[4-({1-[(2R)-2-(3,5-dichlorophenyl)-3,3,3-trifluoro-2-hydroxypropanoyl]piperidin-4-yl}methyl)piperidin-1-yl]-N-[2-(1H-1,2,4-triazol-1-yl)ethyl]benzamide] |
| 63 | 8.30 | 30 | 7.30 | – | – | – | – | – | O=C(c1ccc(N2CCC(CC3CCN(C(=O)[C@](O)(c4ccccc4)C(F)(F)F)CC3)CC2)cc1Cl)N1CCC[C@H]1CO [Example 4-3, (2R)-3-(4-{[1-(3-chloro-4-{[(2S)-2-(hydroxy-methyl)pyrrolidin-1-yl]carbonyl}phenyl)piperidin-4-yl]methyl}piperidin-1-yl)-1,1,1-trifluoro-3-oxo-2-phenylpropan-2-ol] |

More lines, now with the values behind:

| SMILES | Emax [1, 3] [%] | pEC50 [1, 4] | Emax [2, 5] [%] | pEC50 [2, 6] | LXR alpha IP (nM) [2, 7] | pEC50 ([1]; co-activator recruitment to GST-LXRbeta LBD, TR-FRET, read-out: LXR beta IP (Inflection Point, potency)) | Emax ([1]; efficacy in relation to reference dual agonist T0901317, read-out: LXR beta Activity @ max dose) [%] | pEC50 ([2]; co-activator recruitment to GST-LXRalpha LBD, TR-FRET, read-out: LXR alpha IP (Inflection Point, potency)) | Emax ([2]; efficacy in relation to reference dual agonist T0901317, read-out: LXR alpha Activity @ max dose) [%] |
| --- | --- | --- | --- | --- | --- | --- | --- | --- | --- |
| CN(C)C(=O)c1ccc(N2CCC(CC3CCN(C(=O)[C@](O)(c4cccc(O)c4)C(F)(F)F)CC3)CC2)cc1Cl [Example 2-87, 2-chloro-N,N-dimethyl-4-[4-({1-[(2R)-3,3,3-trifluoro-2-hydroxy-2-(3-hydroxyphenyl)propanoyl]piperidin-4-yl}methyl)piperidin-1-yl]benzamide] | 74 | 7.72 | 14 | – | NO IP | – | – | – | – |
| CCc1cccc(C(O)(C(=O)N2CCC(CC3CCN(c4ccc(C(=O)N(C)C)c(Cl)c4)CC3)CC2)C(F)(F)F)c1 (centres unmarked) [Example 2-39, 2-chloro-4-[4-({1-[2-(3-ethylphenyl)-3,3,3-trifluoro-2-hydroxy-propanoyl]piperidin-4-yl}methyl)piperidin-1-yl]-N,N-dimethyl-benzamide] | 30 | 7.44 | 2 | 5.75 | – | – | – | – | – |
| COc1cccc(C(O)(C(=O)N2CCC(OC3CCN(c4ccc(C(=O)N(C)C)c(Cl)c4)CC3)CC2)C(F)(F)F)c1 (centres unmarked) [Example 2-26, 2-chloro-N,N-dimethyl-4-[4-({1-[3,3,3-trifluoro-2-hydroxy-2-(3-methoxyphenyl)propanoyl]piperidin-4-yl}oxy)piperidin-1-yl]benzamide] | 68 | 7.64 | 0 | – | NO IP | – | – | – | – |
| CN(C)C(=O)c1ccc(N2CCC(OC3CCN(C(=O)C(O)(c4cccc(C(F)(F)F)c4)C(F)(F)F)CC3)CC2)cc1Cl (centres unmarked) [Example 2-25, 2-chloro-N,N-dimethyl-4-{4-[(1-{3,3,3-trifluoro-2-hydroxy-2-[3-(trifluoromethyl)phenyl]propanoyl}piperidin-4-yl)oxy]piperidin-1-yl}benzamide] | 89 | 7.55 | 26 | 6.16 | – | – | – | – | – |
| CN(C)C(=O)c1ccc(N2CCC(CC3CCN(C(=O)[C@](O)(c4cccc(OC(F)(F)F)c4)C(F)(F)F)CC3)CC2)cc1 [Example 2-144, N,N-dimethyl-4-{4-[(1-{(2R)-3,3,3-trifluoro-2-hydroxy-2-[3-(trifluoro-methoxy)phenyl]propanoyl}piperidin-4-yl)methyl]piperidin-1-yl}benzamide] | 55 | 7.11 | 14 | – | NO IP | – | – | – | – |
| CN(C)C(=O)c1ccc(N2CCC(CC3CCN(C(=O)[C@](O)(c4cccc(C#N)c4)C(F)(F)F)CC3)CC2)cc1Cl [Example 2-88, 2-chloro-4-[4-({1-[(2R)-2-(3-cyanophenyl)-3,3,3-trifluoro-2-hydroxy-propanoyl]piperidin-4-yl}methyl)piperidin-1-yl]-N,N-dimethyl-benzamide] | 79 | 7.96 | 29 | 6.86 | – | – | – | – | – |
